Measurements from the NIST ThermoML archive (doi:10.1021/je100231g).
Several values for one entry are separate records, joined by “and”; a condition that tells them apart may be missing. Equal values may be shown once. Where a name gives a salt, the structure may show the parent alone.

Conditions: Liquid, Gas Saturation Method

CCCOC(=O)CCC(=O)OCCC [butanedioic acid, dipropyl ester]
Conditions | vapor or sublimation pressure [kPa]
308.3 K | 0.00487
312.4 K | 0.00685
316.4 K | 0.00936
318.5 K | 0.0111
321.5 K | 0.0139
323.5 K | 0.0163
326.4 K | 0.0209
328.6 K | 0.0252
331.3 K | 0.0303
333.4 K | 0.0362
336.5 K | 0.0443
338.5 K | 0.0509
341.5 K | 0.0625
343.5 K | 0.0723

CCCOC(=O)CCCC(=O)OCCC [pentanedioic acid, dipropyl ester]
Conditions | vapor or sublimation pressure [kPa]
313.3 K | 0.00276
316.4 K | 0.00359
318.5 K | 0.00444
319.4 K | 0.00478
322.5 K | 0.00609
323.5 K | 0.00637
325.4 K | 0.00778
328.5 K | 0.01
329.5 K | 0.0109
331.4 K | 0.0128
333.6 K | 0.0149
336.4 K | 0.0184
338.5 K | 0.022
341.4 K | 0.0271
343.6 K | 0.031
346.4 K | 0.0385
348.4 K | 0.0432
350.5 K | 0.0504
353.5 K | 0.0628

CCCCOC(=O)C(=O)OCCCC [di-n-butyl oxalate]
Conditions | vapor or sublimation pressure
291.4 K | 0.00087 kPa
293.4 K | 0.0011 kPa
295.7 K | 0.00143 kPa
298.8 K | 0.00182 kPa
300.4 K | 0.00209 kPa
302.3 K | 0.00249 kPa
302.8 K | 0.00276 kPa
303.3 K | 0.00283 kPa
305.2 K | 0.0034 kPa
305.3 K | 0.00334 kPa
308.2 K | 0.00446 kPa
308.3 K | 0.00433 kPa
308.4 K | 0.00448 kPa
311.3 K | 0.00565 kPa
312.3 K | 0.00624 kPa
313.2 K | 0.0066 kPa
314.3 K | 0.00737 kPa
315.5 K | 0.00855 kPa
317.4 K | 0.00937 kPa
317.8 K | 0.0105 kPa
318.2 K | 0.0105 kPa
319.9 K | 0.0124 kPa
320.2 K | 0.0115 kPa
322.5 K | 0.0149 kPa
323.2 K | 0.0159 kPa
323.4 K | 0.0151 kPa
325.3 K | 0.0176 kPa and 0.018 kPa
326.4 K | 0.0193 kPa
327.5 K | 0.0215 kPa
328.2 K | 0.0223 kPa
328.5 K | 0.0226 kPa
330.3 K | 0.0254 kPa
331.1 K | 0.0289 kPa
331.4 K | 0.0292 kPa
333.2 K | 0.0339 kPa
333.5 K | 0.0346 kPa and 0.0333 kPa
335.2 K | 0.0375 kPa
336.3 K | 0.0414 kPa
337 K | 0.0434 kPa
338.1 K | 0.0475 kPa
338.6 K | 0.0475 kPa
340.2 K | 0.0543 kPa
340.8 K | 0.0586 kPa
341.4 K | 0.0568 kPa
343.2 K | 0.0651 kPa
343.4 K | 0.0693 kPa
343.5 K | 0.0645 kPa
345.2 K | 0.0741 kPa
348.3 K | 0.0962 kPa
351.2 K | 0.1137 kPa
353.1 K | 0.1332 kPa
358.2 K | 0.1811 kPa

CCOC(=O)CC(=O)OCC [diethyl 1,3-propanedioate]
Conditions | vapor or sublimation pressure [kPa]
283.8 K | 0.00689
286.2 K | 0.00858
289.2 K | 0.0115
292.3 K | 0.015
295.2 K | 0.0193
298.2 K | 0.0251
301.3 K | 0.0321
304.2 K | 0.0405
304.7 K | 0.0428
307.3 K | 0.0513
310.2 K | 0.0646
313.3 K | 0.0814
316.3 K | 0.1005

CCOC(=O)C(=O)OCC [diethyl ethanedioate]
Conditions | vapor or sublimation pressure [kPa]
283.6 K | 0.0164
288.5 K | 0.0256
293.4 K | 0.0392
298.3 K | 0.0571
303.3 K | 0.0814
308.4 K | 0.1254
311.3 K | 0.1509
313.5 K | 0.175
316.4 K | 0.2075
318.3 K | 0.2434
321.4 K | 0.2972
325.4 K | 0.3834
329.5 K | 0.4832
333.5 K | 0.6275

CCOC(=O)CCCC(=O)OCC [diethyl glutarate]
Conditions | vapor or sublimation pressure [kPa]
298.3 K | 0.00352
303.4 K | 0.00575
308.6 K | 0.00877
311.2 K | 0.0108
313.5 K | 0.0134
316.2 K | 0.0161
318.2 K | 0.0185
318.5 K | 0.02
322.2 K | 0.0254
323.3 K | 0.0277
328.2 K | 0.0405
333.2 K | 0.0601
338.2 K | 0.0874
343.2 K | 0.1236
347.9 K | 0.1725

CCCOC(=O)C(=O)OCCC [di-n-propyl oxalate]
Conditions | vapor or sublimation pressure [kPa]
293.6 K | 0.00943
298.5 K | 0.0139
301.4 K | 0.0175
306.4 K | 0.0255
308.4 K | 0.0304
311.4 K | 0.0362
313.4 K | 0.0413
316.3 K | 0.052
318.6 K | 0.0626
321.4 K | 0.0741
323.3 K | 0.0903
326.3 K | 0.1085
328.3 K | 0.1248
330.4 K | 0.1423
333.5 K | 0.1801

CCCCOC(=O)CCCC(=O)OCCCC [dibutyl pentanedioate]
Conditions | vapor or sublimation pressure
317.5 K | 0.00064 kPa
318.3 K | 0.0007 kPa
322.4 K | 0.00103 kPa
323.4 K | 0.00114 kPa and 0.00113 kPa
325.4 K | 0.00132 kPa
326.5 K | 0.00145 kPa
328.4 K | 0.00179 kPa and 0.00173 kPa
330.6 K | 0.0021 kPa
331.5 K | 0.00229 kPa
333.5 K | 0.00273 kPa
334.6 K | 0.00306 kPa
334.7 K | 0.00298 kPa
337.6 K | 0.00375 kPa
338.6 K | 0.00404 kPa
340.5 K | 0.00475 kPa
343.3 K | 0.006 kPa
346.6 K | 0.00782 kPa
349.6 K | 0.00973 kPa
350.3 K | 0.0103 kPa
352.5 K | 0.0121 kPa
354.7 K | 0.0145 kPa
357.5 K | 0.0177 kPa
360.6 K | 0.0213 kPa
363.4 K | 0.026 kPa
366.4 K | 0.0318 kPa
369.5 K | 0.0403 kPa

CCCOC(=O)CC(=O)OCCC [dipropyl 1,3-propanedioate]
Conditions | vapor or sublimation pressure [kPa]
293.3 K | 0.00356
298.3 K | 0.00582
299.4 K | 0.00652
303.2 K | 0.00897
307.3 K | 0.0129
308.2 K | 0.0135
311.3 K | 0.0178
313.3 K | 0.0199
315.3 K | 0.0245
318.5 K | 0.0296
319.4 K | 0.0332
323.4 K | 0.0426
328.5 K | 0.0622
333.5 K | 0.089
336.4 K | 0.1095
338.5 K | 0.13

CCOC(=O)CCCCC(=O)OCC [diethyl hexanedioate]
Conditions | vapor or sublimation pressure [kPa]
303.5 K | 0.0022
308.2 K | 0.00343
313.3 K | 0.00523
318.2 K | 0.00793
323.1 K | 0.0118
328.2 K | 0.0185
329.6 K | 0.0209
333.2 K | 0.0273
335.2 K | 0.0323
338.2 K | 0.039
340.2 K | 0.0462
343.2 K | 0.0561
346.2 K | 0.0698
349.1 K | 0.0851
352.2 K | 0.1061

CCCCOC(=O)CCCCC(=O)OCCCC [dibutyl hexanedioate]
Conditions | vapor or sublimation pressure [kPa]
313.2 K | 0.00018
318.2 K | 0.0003
323.2 K | 0.00048
328.2 K | 0.00079
333.3 K | 0.00127
338.4 K | 0.00202
343.1 K | 0.00304
348.2 K | 0.00467
353.2 K | 0.00705
358.2 K | 0.0102
363.2 K | 0.0143
368.2 K | 0.0201
373.2 K | 0.0285

CCCCOC(=O)CCC(=O)OCCCC [butanedioic acid, dibutyl ester]
Conditions | vapor or sublimation pressure [kPa]
313.3 K | 0.00132
316.2 K | 0.0017
318.3 K | 0.00205
320.2 K | 0.00248
323.2 K | 0.00325
325.2 K | 0.00383
328.2 K | 0.00489
330.2 K | 0.00577
333.2 K | 0.00743
335.4 K | 0.00877
338.2 K | 0.011
340.1 K | 0.0121
343.2 K | 0.0164
346.2 K | 0.0197
349.2 K | 0.0247
352.1 K | 0.0319
355.1 K | 0.0387
358.2 K | 0.0473

CCCCOC(=O)CC(=O)OCCCC [dibutyl 1,3-propanedioate]
Conditions | vapor or sublimation pressure [kPa]
303.2 K | 0.00138
308.3 K | 0.00223
313.3 K | 0.00366
318.3 K | 0.00557
323.2 K | 0.00878
325.1 K | 0.0101
328.2 K | 0.0131
330.2 K | 0.0152
333.2 K | 0.0193
335.2 K | 0.0217
338.2 K | 0.0267
340.2 K | 0.0325
343.2 K | 0.0407
345.2 K | 0.0454
349.1 K | 0.0586
353.1 K | 0.0788
357.2 K | 0.1022
361.2 K | 0.1343
365.2 K | 0.1672
369.2 K | 0.2174

CCCOC(=O)CCCCC(=O)OCCC [dipropyl hexanedioate]
Conditions | vapor or sublimation pressure [kPa]
318.8 K | 0.00173
321.7 K | 0.00222
323.5 K | 0.0026
327.4 K | 0.00367
333.2 K | 0.00602
336.1 K | 0.00765
339.1 K | 0.00972
342.1 K | 0.0122
345.5 K | 0.0152
348.3 K | 0.0196
351.5 K | 0.0253
354.2 K | 0.0306
357.1 K | 0.0373
361.2 K | 0.0485
365.3 K | 0.0639

CCOC(=O)CCC(=O)OCC [diethyl butanedioate]
Conditions | vapor or sublimation pressure
290.2 K | 0.00495 kPa
290.5 K | 0.00504 kPa
293.5 K | 0.00678 kPa
296.4 K | 0.00861 kPa
301.4 K | 0.0134 kPa
306.4 K | 0.0208 kPa
311.4 K | 0.0313 kPa
313.4 K | 0.035 kPa
316.4 K | 0.0455 kPa
318.4 K | 0.0503 kPa
321.4 K | 0.0661 kPa
323.5 K | 0.0777 kPa
326.5 K | 0.0941 kPa and 0.0963 kPa
328.5 K | 0.1125 kPa
331.4 K | 0.133 kPa
331.6 K | 0.1351 kPa
333.6 K | 0.1517 kPa
336.5 K | 0.1864 kPa
339.4 K | 0.2221 kPa
342.4 K | 0.2658 kPa
345.5 K | 0.3425 kPa
